Read-outs that look alike come from different tables or passages of the source.
Columns and labels:
tubulin = assay: photometric measurement of polymerisation of tubulin and depolymerisation of microtubules (350 nm); assay type: biochemical, bovine; settings: photometry, compared with taxol/control; for effect on polymerisation of tubulin: 37° C., tubulin 2 mg protein/ml; for stabilisation of microtubules (effect on depolymerisation): depolymerisation initiated by reducing temperature to 15° C.
Experimental: Bovine brains (each 330 g) are removed from freshly opened cows' heads and are transported in ice-cooled PM4-M buffer. Each brain is freed of the meninges and also of any thrombi and is homogenised with sufficient PM4M buffer in a cooling chamber. The homogenised material from 2 bovine brains is made up to a total volume of 1.0 liter with a total of 500 ml of buffer and is subjected to a first centrifugation (GSA rotor, 15 minutes, 4° C., 6500 g). The supernatant is freed of the sebaceous skin on the surface, filtered over 4 layers of thin muslin, transferred into counter-balanced centrifuge tubes (420 ml) and centrifuged again (Ti 45 rotor, 96000 g, 75 minutes, 4° C.). The supernatant is removed by pipette through the pellet and filtered over 6 layers of thin muslin, and a 50 mM GTP solution in 0.001M bicarbonate/PBS is added to obtain a final concentration of 1 mM. A first polymerisation is carried out in counter-balanced centrifuge tubes for 45 minutes in a water bath warmed to 37° C. The microtubules that have formed are removed by centrifugation (Ti 45 rotor, 27° C., 96000 g, 60 minutes), the supernatant is carefully removed by pipette and the very soft, opalescent pellet is carefully separated from the wall with a spatula. 40 ml of cold PM buffer are then added to the pellet, followed by homogenisation using a small glass mortar and incubation overnight (from 12 to 16 hours) on ice in counter-balanced centrifuge tubes in a cooling chamber. The depolymerisation product is removed by centrifugation in the Ti 60 rotor (4° C.; 96000 g, 60 minutes) and the supernatant is diluted with PM8-M buffer to 1:1, incubated in counter-balanced centrifuge tubes at 37° C. for 45 minutes and centrifuged again (Ti 45 rotor, 27° C., 96000 g, 60 minutes). The supernatant is carefully removed by pipette and the very soft opalescent pellet is taken up in 20 ml of cold PM buffer, homogenised carefully using a small glass mortar and incubated on ice for 30 minutes. The renewed centrifugation (Ti 60 rotor, 4° C., 96000 g, 60 minutes) gives tubulin, the protein content of which is determined according to Pearce or according to a photometric measurement at 280 nm. In the protein determination, dilutions of isolated material to PM buffer of 1:10, 1:20 and 1:40 are used. The PM buffer has own extinction and is deducted as a zero value from the determined protein content. The isolated material is diluted with PM buffer to the intended protein concentration (2 mg/ml).
The measurement of the polymerisation of tubulin and the depolymerisation of microtubules is carried out by photometry. Before the measurement, the tubulin prepared in accordance with Application Example 1 is thawed and degassed for 15 minutes. The photometer is set to a wavelength of 350 nm. 3 μl of solvent/sample, 6 μl of GTP ([…] final.) and 291 μl of tubulin (2 mg protein/ml) are pipetted into the dry and cleaned dishes (10 mm). The sample is carefully stirred (without causing air bubbles), immediately placed in dish carriages and the measuring operation is started at 37° C. Once the polymerisation maximum has been reached (solvent control and taxol 1E-5 mol/l after 20 minutes), the depolymerisation is initiated by reducing the temperature to 15° C. The measuring operation is stopped at the end of the depolymerisation and the course of the change in absorption is represented in graph form as a function of time and temperature (see FIG. 1).

[1] = system: MDA MB 435 mammary carcinoma cells; assay: anti-proliferative effect on tumour cell line, MTT method; assay type: cell-based; settings: for IC50: Homo sapiens; for inhibiting (anti-proliferative) activity compared with taxol, in words: MDA MB 435 cells, MTT, comparison with taxol
Experimental: The addition of the substance in several concentrations is carried out on day 1. The anti-proliferative effect is determined on day 3 using the MTT method. The IC50 values are determined therefrom.

[2] = MDA MB 435 mammary carcinoma cells, 5000 cells/well, substance added day 1, determined day 3, MTT, read-out: MDA-MB 435 cells IC50

| IC50 [1, 2] [nM] | Structure (SMILES) | effect on polymerisation of tubulin (tubulin) | stabilisation of microtubules (effect on depolymerisation) (tubulin) | inhibiting (anti-proliferative) activity compared with taxol, in words [1] | IC50 ([1]; MDA-MB-435, read-out: MDA-MB 435 cells IC50) [nM] |
| --- | --- | --- | --- | --- | --- |
| 2 | COC(=O)N[C@@H](c1ccncc1)[C@@H](O)C(=O)O[C@H]1C[C@@]2(O)[C@@H](OC(=O)c3ccccc3)[C@@H]3[C@]4(OC(C)=O)CO[C@@H]4C[C@H](O)[C@@]3(C)C(=O)[C@H](OC(C)=O)C(=C1C)C2(C)C [Compound 1, 3'-desphenyl-3'-(4-pyridyl)-3'-N-debenzoyl-3'-N-methoxycarbonyl-taxol] | inhibits the polymerisation | stabilises the microtubules that have formed distinctly better than taxol | activity similar to that of taxol |  |
|  | CC(=O)O[C@H]1C(=O)[C@@]2(C)[C@H]([C@H](OC(=O)c3ccccc3)[C@]3(O)C[C@H](OC(=O)[C@H](O)[C@@H](NC(=O)c4ccccc4)c4ccccc4)C(C)=C1C3(C)C)[C@]1(OC(C)=O)CO[C@@H]1C[C@@H]2O [Taxol, reference compound] | speeds up the polymerisation of tubulin in comparison with the control | inhibits depolymerisation |  | 3 |
| 8000 | COC(=O)N[C@@H](c1ccncc1)[C@@H](O)C(=O)O[C@H]1C[C@@]2(O)[C@@H](O)[C@@H]3[C@]4(OC(C)=O)CO[C@@H]4C[C@H](O)[C@@]3(C)C(=O)[C@H](OC(C)=O)C(=C1C)C2(C)C [Compound 3, 3'-desphenyl-3'-(4-pyridyl)-2,3'-N-bisdebenzoyl-3'-N-methoxycarbonyl-taxol] | much more pronounced acceleration of the polymerisation of tubulin | stabilises the microtubules that have formed better than taxol |  |  |
| 60 | COC(=O)N[C@@H](c1ccncc1)[C@@H](O)C(=O)O[C@H]1C[C@@]2(O)[C@@H](OC(=O)c3ccccc3)[C@@H]3[C@]4(OC(C)=O)CO[C@@H]4C[C@H](O)[C@@]3(C)C(=O)[C@H](O)C(=C1C)C2(C)C [Compound 4, 3'-Desphenyl-3'-(4-pyridyl)-3'-N-debenzoyl-3'-N-methoxycarbonyl-10-desacetyl-taxol] | does not differ from taxol in respect of the polymerisation behaviour of tubulin | stabilise the microtubules that have formed substantially better than taxol |  |  |
| 0.8 | COC(=O)N[C@@H](c1ccncc1)[C@@H](O)C(=O)O[C@H]1C[C@@]2(O)[C@@H](OC(=O)c3ccccc3)[C@@H]3[C@]4(OC(C)=O)CO[C@@H]4C[C@@H](O)[C@@]3(C)C(=O)[C@H](OC(C)=O)C(=C1C)C2(C)C [Compound 2, 3'-desphenyl-3'-(4-pyridyl)-3'-N-debenzoyl-3'-N-methoxycarbonyl-7-epi-taxol] | much more pronounced acceleration of the polymerisation of tubulin | stabilises the microtubules that have formed very much better than taxol | significantly improved inhibiting activity compared with taxol |  |

Source: patent US6162920A, “Taxane derivatives having a pyridyl substituted C13 side chain, their preparation and their use as anti-tumor agents” (Schering Aktiensgesellschaft, priority 1996, dated 2000)
